Measured values from PMC6290023 (Scientific Reports, 2018).
Square brackets hold non-standard residues; d marks the D form. Peptide text beside a SMILES is read from it.

Tests used:
LPS-stimulated MG6 cells [1] = experiment: Anti-inflammatory effect in LPS-stimulated MG6 cells (TNF-α / IL-6 ELISA); format: cell-based, mouse; details: LPS-stimulated MG6 cells; for inhibition of IL-6 expression compared with MHP1 / inhibition of TNF-α expression compared with MHP1: medium harvested 24 h after stimulation; for effect on expression of TNF-α: vs LPS-stimulated cells without treatment
Protocol: MG6 cells were obtained from RIKEN BRC (Tsukuba, Japan)[25],[26]. The MG6 cells were maintained in DMEM (Nakarai, Kyoto, Japan) supplemented with 10% FBS (Thermo Fisher Scientific, Waltham, MA, USA), 10 μg/ml insulin (Sigma-Aldrich, St. Louis, MO, USA) and 100 μM 2-mercaptoethanol (Sigma-Aldrich). These cells (1 × 10^5 cells) were plated in 96-well plastic culture dishes. After overnight incubation, the medium was replaced with DMEM supplemented with 4% FBS. LPS (Escherichia coli 0111: B4; Sigma-Aldrich, St. Louis, MO, USA) and MHP1 or modified MHP1 was added to the medium, which was then harvested at 24 h after stimulation. In the experiment checking the stability at 26 or 37 °C, MHP1-Ac or MHP1-AcN was incubated at 26 or 37 °C for 24 h before adding to the medium.
The concentrations of TNF-α and IL-6 were measured using commercially available ELISA kits: TNF-α, Quantikine Mouse TNF-α ELISA Kit (R&D systems); IL-6, Quantikine Mouse IL-6 ELISA Kit (R&D systems).

Mouse (CD-1(ICR)) serum = details: 37 °C, up to 60 min
[2] = Dissolution in water and sedimentation in 0.45% saline at 37 °C for 24 h; format: physicochemical
Protocol: Synthetic MHP1 (NH2-[…]-COOH), MHP1-DN1 (NH2-LMVYVV-DLys-[…]-COOH), MHP1-DN2 (NH2-LMV-DTyr-[…]-COOH), MHP1-DN3 (NH2-L-DMet-[…]-COOH), MHP1-DC (NH2-LMVYVVKTSIKIPSSHNL-DMet-KGGSTKNWSGN-COOH), MHP1-Ac (Ac-[…]-COOH), MHP1-AcN (Ac-[…]-HN2), or MHP1-N (NH2-[…]-NH2) was purchased from ILS, Inc (Ibaraki, Tsukuba, Japan), dissolved in 1 or 2 mg/ml ddH2O and stored at 4 °C until use (Table 1).

LPS-stimulated MG6 cells [3] = experiment: LDH assay in LPS-stimulated MG6 cells; format: cell-based, mouse
[4] = Pharmacokinetics after intravenous injection 4 h after tMCAo (LC/MS/MS); format: in vivo; details: mouse, i.v. 2 mg/ml, 10 ml/kg in 0.45% saline
Protocol: MHP1-Ac or MHP1-AcN (2 mg/ml, 10 ml/kg in 0.45% saline) was administered intravenously 4 hrs after tMCAo and mouse plasma was collected at 5 min, 10 min, 20 min, 30 min, 45 min, 1 h, and 2 h after injection. Mouse plasma (C57BL6J, 10 µL) and water/phosphoric acid (24:1, v/v) (Solution B, 500 µL) were mixed together to prepare the plasma samples. The samples (510 µL) were then analyzed using LC/MS/MS to determine MHP1-Ac or MHP1-AcN in plasma. Mouse brain was weighed and mixed with a 4-fold volume of solution B and the mixture was homogenized to prepare the brain samples. The specific gravity of solution B was assumed to be 1. The brain samples (10 µL) were analyzed using LC/MS/MS to determine MHP1-Ac or MHP1-AcN in brain. MHP1-Ac and MHP1-AcN, and MHP1-N (internal standard), in the plasma samples and brain samples, were extracted using Oasis HLB μElution Plate (Waters). Chromatographic analysis was performed on an InertSustain C18 (2.1 mm I.D. ×50 mm, 3 µm, GL Sciences) column using the mobile phase A, water/formic acid (1000:1, v/v), and the mobile phase B, acetonitrile/formic acid (1000:1, v/v).

Compound	inhibition of IL-6 expression compared with MHP1 (LPS-stimulated MG6 cells [1]; ELISA)	inhibition of TNF-α expression compared with MHP1 (LPS-stimulated MG6 cells [1]; ELISA)	anti-inflammatory effects (LPS-stimulated MG6 cells [1]; 24 h, ELISA)	effect on expression of TNF-α (LPS-stimulated MG6 cells [1]; 24 h, ELISA)	also measured
CC[C@H](C)[C@H](NC(=O)[C@H](CO)NC(=O)[C@@H](NC(=O)[C@H](CCCCN)NC(=O)[C@@H](NC(=O)[C@@H](NC(=O)[C@H](Cc1ccc(O)cc1)NC(=O)[C@@H](NC(=O)[C@H](CCSC)NC(=O)[C@@H](N)CC(C)C)C(C)C)C(C)C)C(C)C)[C@@H](C)O)C(=O)N[C@@H](CCCCN)C(=O)N[C@H](C(=O)N1CCC[C@H]1C(=O)N[C@@H](CO)C(=O)N[C@@H](CO)C(=O)N[C@@H](Cc1c[nH]cn1)C(=O)N[C@@H](CC(N)=O)C(=O)N[C@@H](CC(C)C)C(=O)N[C@@H](CCSC)C(=O)N[C@@H](CCCCN)C(=O)NCC(=O)NCC(=O)N[C@@H](CO)C(=O)N[C@H](C(=O)N[C@@H](CCCCN)C(=O)N[C@@H](CC(N)=O)C(=O)N[C@@H](Cc1c[nH]c2ccccc12)C(=O)N[C@@H](CO)C(=O)NCC(=O)N[C@@H](CC(N)=O)C(N)=O)[C@@H](C)O)[C@@H](C)CC [MHP1-N] (H-LMVYVVKTSIKIPSSHNLMKGGSTKNWSGN-NH2)	not replicated	more effective than MHP1	–	–	–
CC[C@H](C)[C@H](NC(=O)[C@H](CO)NC(=O)[C@@H](NC(=O)[C@H](CCCCN)NC(=O)[C@@H](NC(=O)[C@@H](NC(=O)[C@H](Cc1ccc(O)cc1)NC(=O)[C@@H](NC(=O)[C@H](CCSC)NC(=O)[C@@H](N)CC(C)C)C(C)C)C(C)C)C(C)C)[C@@H](C)O)C(=O)N[C@@H](CCCCN)C(=O)N[C@H](C(=O)N1CCC[C@H]1C(=O)N[C@@H](CO)C(=O)N[C@@H](CO)C(=O)N[C@@H](Cc1c[nH]cn1)C(=O)N[C@@H](CC(N)=O)C(=O)N[C@@H](CC(C)C)C(=O)N[C@H](CCSC)C(=O)N[C@@H](CCCCN)C(=O)NCC(=O)NCC(=O)N[C@@H](CO)C(=O)N[C@H](C(=O)N[C@@H](CCCCN)C(=O)N[C@@H](CC(N)=O)C(=O)N[C@@H](Cc1c[nH]c2ccccc12)C(=O)N[C@@H](CO)C(=O)NCC(=O)N[C@@H](CC(N)=O)C(=O)O)[C@@H](C)O)[C@@H](C)CC [MHP1-DC] (H-LMVYVVKTSIKIPSSHNL[dM]KGGSTKNWSGN-OH)	not replicated	more effective than MHP1	–	–	–
CC[C@H](C)[C@H](NC(=O)[C@H](CO)NC(=O)[C@@H](NC(=O)[C@@H](CCCCN)NC(=O)[C@@H](NC(=O)[C@@H](NC(=O)[C@H](Cc1ccc(O)cc1)NC(=O)[C@@H](NC(=O)[C@H](CCSC)NC(=O)[C@@H](N)CC(C)C)C(C)C)C(C)C)C(C)C)[C@@H](C)O)C(=O)N[C@@H](CCCCN)C(=O)N[C@H](C(=O)N1CCC[C@H]1C(=O)N[C@@H](CO)C(=O)N[C@@H](CO)C(=O)N[C@@H](Cc1c[nH]cn1)C(=O)N[C@@H](CC(N)=O)C(=O)N[C@@H](CC(C)C)C(=O)N[C@@H](CCSC)C(=O)N[C@@H](CCCCN)C(=O)NCC(=O)NCC(=O)N[C@@H](CO)C(=O)N[C@H](C(=O)N[C@@H](CCCCN)C(=O)N[C@@H](CC(N)=O)C(=O)N[C@@H](Cc1c[nH]c2ccccc12)C(=O)N[C@@H](CO)C(=O)NCC(=O)N[C@@H](CC(N)=O)C(=O)O)[C@@H](C)O)[C@@H](C)CC [MHP1-DN1] (H-LMVYVV[dK]TSIKIPSSHNLMKGGSTKNWSGN-OH)	–	–	lacked anti-inflammatory effects	augmented the expression of TNF-α	–
CC[C@H](C)[C@H](NC(=O)[C@H](CO)NC(=O)[C@@H](NC(=O)[C@H](CCCCN)NC(=O)[C@@H](NC(=O)[C@@H](NC(=O)[C@@H](Cc1ccc(O)cc1)NC(=O)[C@@H](NC(=O)[C@H](CCSC)NC(=O)[C@@H](N)CC(C)C)C(C)C)C(C)C)C(C)C)[C@@H](C)O)C(=O)N[C@@H](CCCCN)C(=O)N[C@H](C(=O)N1CCC[C@H]1C(=O)N[C@@H](CO)C(=O)N[C@@H](CO)C(=O)N[C@@H](Cc1c[nH]cn1)C(=O)N[C@@H](CC(N)=O)C(=O)N[C@@H](CC(C)C)C(=O)N[C@@H](CCSC)C(=O)N[C@@H](CCCCN)C(=O)NCC(=O)NCC(=O)N[C@@H](CO)C(=O)N[C@H](C(=O)N[C@@H](CCCCN)C(=O)N[C@@H](CC(N)=O)C(=O)N[C@@H](Cc1c[nH]c2ccccc12)C(=O)N[C@@H](CO)C(=O)NCC(=O)N[C@@H](CC(N)=O)C(=O)O)[C@@H](C)O)[C@@H](C)CC [MHP1-DN2] (H-LMV[dY]VVKTSIKIPSSHNLMKGGSTKNWSGN-OH)	–	–	lacked anti-inflammatory effects	augmented the expression of TNF-α	–
CC[C@H](C)[C@H](NC(=O)[C@H](CO)NC(=O)[C@@H](NC(=O)[C@H](CCCCN)NC(=O)[C@@H](NC(=O)[C@@H](NC(=O)[C@H](Cc1ccc(O)cc1)NC(=O)[C@@H](NC(=O)[C@@H](CCSC)NC(=O)[C@@H](N)CC(C)C)C(C)C)C(C)C)C(C)C)[C@@H](C)O)C(=O)N[C@@H](CCCCN)C(=O)N[C@H](C(=O)N1CCC[C@H]1C(=O)N[C@@H](CO)C(=O)N[C@@H](CO)C(=O)N[C@@H](Cc1c[nH]cn1)C(=O)N[C@@H](CC(N)=O)C(=O)N[C@@H](CC(C)C)C(=O)N[C@@H](CCSC)C(=O)N[C@@H](CCCCN)C(=O)NCC(=O)NCC(=O)N[C@@H](CO)C(=O)N[C@H](C(=O)N[C@@H](CCCCN)C(=O)N[C@@H](CC(N)=O)C(=O)N[C@@H](Cc1c[nH]c2ccccc12)C(=O)N[C@@H](CO)C(=O)NCC(=O)N[C@@H](CC(N)=O)C(=O)O)[C@@H](C)O)[C@@H](C)CC [MHP1-DN3] (H-L[dM]VYVVKTSIKIPSSHNLMKGGSTKNWSGN-OH)	–	–	lacked anti-inflammatory effects	no influence	–
LMVYVVKTSIKIPSSHNLMKGGSTKNWSGN	–	–	–	–	cleaved bond (Mouse (CD-1(ICR)) serum): L-M2 and M2-V and V-Y4 and Y4-V, major and K7-T, major and Met19-K; fragment found (Mouse (CD-1(ICR)) serum): LMVYVVKTSIKIPSSHNLMKGGSTKNWSGN-Oxygen
CC[C@H](C)[C@H](NC(=O)[C@H](CO)NC(=O)[C@@H](NC(=O)[C@H](CCCCN)NC(=O)[C@@H](NC(=O)[C@@H](NC(=O)[C@H](Cc1ccc(O)cc1)NC(=O)[C@@H](NC(=O)[C@H](CCSC)NC(=O)[C@H](CC(C)C)NC(C)=O)C(C)C)C(C)C)C(C)C)[C@@H](C)O)C(=O)N[C@@H](CCCCN)C(=O)N[C@H](C(=O)N1CCC[C@H]1C(=O)N[C@@H](CO)C(=O)N[C@@H](CO)C(=O)N[C@@H](Cc1c[nH]cn1)C(=O)N[C@@H](CC(N)=O)C(=O)N[C@@H](CC(C)C)C(=O)N[C@@H](CCSC)C(=O)N[C@@H](CCCCN)C(=O)NCC(=O)NCC(=O)N[C@@H](CO)C(=O)N[C@H](C(=O)N[C@@H](CCCCN)C(=O)N[C@@H](CC(N)=O)C(=O)N[C@@H](Cc1c[nH]c2ccccc12)C(=O)N[C@@H](CO)C(=O)NCC(=O)N[C@@H](CC(N)=O)C(=O)O)[C@@H](C)O)[C@@H](C)CC [MHP1-Ac] (Ac-LMVYVVKTSIKIPSSHNLMKGGSTKNWSGN-OH)	more effective than MHP1	more effective than MHP1	–	–	anti-inflammatory effects at 1 µg/ml (LPS-stimulated MG6 cells [1]; 1 µg/ml peptide): not seen; dose dependency of anti-inflammatory effects (LPS-stimulated MG6 cells [1]; 24 h, ELISA): Dose-dependent anti-inflammatory effects were observed; sedimentation after incubation in 0.45% saline ([2]; 0.45% saline, 37 °C, 24 h, visual, concentration not given): experienced sedimentation; dissolution in water ([2]; water): easily dissolved in water; cytotoxicity (LDH assay) (LPS-stimulated MG6 cells [3]): did not increase cytotoxicity; time post-injection until which peptide was detected in the brain ([4]; brain homogenate, last sampling 2 h): 2 h; time within which peptide was degraded in plasma ([4]; plasma): ≤ 20 min
